# Experimental data: patent US20230117034A1, “PYRAZOLOTRIAZINES” (Bayer Aktiengesellschaft, priority 2019, published 2023)
# Experiments:
# [1] = target: T1, CDK9/CycT1 (Homo sapiens, UniProt P50750); test: CDK9/CycT1 high ATP kinase assay (TR-FRET, 2 mM ATP); format: biochemical; conditions: 2 mM ATP (high ATP); median; read-out: CDK9/CyclinT1, 2 mM ATP (high ATP), IC50 (median)
# T1 construct: Recombinant full-length His-tagged human CDK9 and CycT1; purchased Life Technologies PV4131; host or cells: insect cells
# Procedure, shortened: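 Full-length His-tagged human CDK9/CycT1 (insect cell, ~0.5 μg/mL) preincubated 15 min at 22 °C with compound in Tris pH 8.0, MgCl2, DTT buffer before reaction with biotinylated peptide substrate at high ATP (2 mM).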
# [2] = target: T2, CDK2/CycE (Homo sapiens, UniProt P24941); test: CDK2/CycE kinase assay (TR-FRET, 2 mM ATP); format: biochemical; conditions: 2 mM ATP (high ATP); median; read-out: CDK2/CyclinE, 2 mM ATP (high ATP), IC50 (median)
# T2 construct: purchased ProQinase GmbH (Freiburg, Germany); host or cells: insect cells (Sf9)
# Procedure, shortened: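 GST-tagged human CDK2 and CycE from Sf9 cells, about 10 ng/ml, pre-incubated 15 min at 22 °C with compound in Tris/HCl pH 8.0 buffer. Reaction with 2 mM ATP and 0.75 µM biotinylated peptide for 25 min at 22 °C. Phospho-RB antibody TR-FRET (665/620 nm ratio) read after 1 h; data normalised to no-inhibitor and no-enzyme controls.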
# T1 sequence (P50750 whole entry): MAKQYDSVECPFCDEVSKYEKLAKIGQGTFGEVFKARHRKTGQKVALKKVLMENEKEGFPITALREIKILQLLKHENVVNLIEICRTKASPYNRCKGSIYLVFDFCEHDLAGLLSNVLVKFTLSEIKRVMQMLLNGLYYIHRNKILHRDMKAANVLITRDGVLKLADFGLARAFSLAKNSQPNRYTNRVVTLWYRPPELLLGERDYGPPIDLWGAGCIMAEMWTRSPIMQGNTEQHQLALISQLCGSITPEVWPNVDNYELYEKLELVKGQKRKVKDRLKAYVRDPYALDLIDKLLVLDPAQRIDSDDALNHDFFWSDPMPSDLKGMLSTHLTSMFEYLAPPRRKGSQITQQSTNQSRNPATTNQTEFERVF
# T1 sequence (O60563 whole entry partner): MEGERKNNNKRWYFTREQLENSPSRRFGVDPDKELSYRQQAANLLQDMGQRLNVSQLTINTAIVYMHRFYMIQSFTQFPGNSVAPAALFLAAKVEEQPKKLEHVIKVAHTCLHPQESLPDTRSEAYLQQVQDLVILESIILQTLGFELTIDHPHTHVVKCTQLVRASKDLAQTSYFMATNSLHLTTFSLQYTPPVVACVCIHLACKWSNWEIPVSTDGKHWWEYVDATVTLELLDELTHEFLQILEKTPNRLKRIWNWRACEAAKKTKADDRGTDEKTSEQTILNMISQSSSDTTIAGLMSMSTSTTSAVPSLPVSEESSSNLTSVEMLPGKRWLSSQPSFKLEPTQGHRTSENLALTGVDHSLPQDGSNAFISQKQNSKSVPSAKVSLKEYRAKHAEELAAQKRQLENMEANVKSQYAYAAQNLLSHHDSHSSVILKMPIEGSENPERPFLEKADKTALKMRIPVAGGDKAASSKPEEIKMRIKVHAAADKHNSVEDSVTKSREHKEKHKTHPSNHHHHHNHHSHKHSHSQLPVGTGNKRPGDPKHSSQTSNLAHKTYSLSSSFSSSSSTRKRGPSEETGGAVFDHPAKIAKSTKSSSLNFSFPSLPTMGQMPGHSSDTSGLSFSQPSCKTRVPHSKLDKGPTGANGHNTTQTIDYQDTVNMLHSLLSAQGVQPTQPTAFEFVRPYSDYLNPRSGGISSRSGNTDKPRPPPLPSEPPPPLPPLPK
Structure (SMILES),IC50 [1],IC50 [2]
"CN1CCN(c2nc(NCc3nc4ccccc4[nH]3)n3ncc(CC(F)(F)F)c3n2)CC1 [Example 436, N-[(1H-benzimidazol-2-yl)methyl]-2-(4-methylpiperazin-1-yl)-8-(2,2,2-trifluoroethyl)pyrazolo [1,5-a][1,3,5]triazin-4-amine]",> 20 µM,> 20 µM
"CCNc1nc(NCc2nnc(-c3ccccc3)[nH]2)n2ncc(C(C)C)c2n1 [Example 38, N^2-ethyl-N^4-[(5-phenyl-4H-1,2,4-triazol-3-yl)methyl]-8-(propan-2-yl)pyrazolo[1,5-a][1,3,5]triazine-2,4-diamine]",> 20 µM,8.3 µM
"CCc1cnn2c(NCc3nc4c(F)c(F)ccc4[nH]3)nc(N3CCOCC3)nc12 [Example 432, N-[(4,5-difluoro-1H-benzimidazol-2-yl)methyl]-8-ethyl-2-(morpholin-4-yl)pyrazolo[1,5-a][1,3,5]triazin-4-amine]",15.7 µM,7.57 µM
"C[C@@H]1COCCN1c1nc(NCc2nc3ccccc3[nH]2)n2ncc(Br)c2n1 [Example 56, N-[(1H-benzimidazol-2-yl)methyl]-8-bromo-2-[(3R)-3-methylmorpholin-4-yl]pyrazolo[1,5-a][1,3,5]triazin-4-amine]",> 20 µM,2.02 µM
"FC(F)Cc1cnn2c(NCc3nc4ccccc4[nH]3)nc(N3CCOCC3)nc12.O=C(O)C(F)(F)F [Example 444, trifluoroacetic acid N-[(1H-benzimidazol-2-yl)methyl]-8-(2,2-difluoroethyl)-2-(morpholin-4-yl)pyrazolo[1,5-a][1,3,5]triazin-4-amine]",> 20 µM,15.4 µM
"OC[C@@H]1CCCCN1c1nc(NCc2nc3ccccc3[nH]2)n2ncc(Br)c2n1 [Example 59, [(2S)-1-(4-{[(1H-benzimidazol-2-yl)methyl]amino}-8-bromopyrazolo[1,5-a][1,3,5]triazin-2-yl)piperidin-2-yl]methanol]",10.7 µM,1.05 µM
"CC(C)c1cnn2c(NCc3nnc(-c4ccccc4)[nH]3)nc(N3CCOCC3)nc12 [Example 33, 2-(morpholin-4-yl)-N-[(5-phenyl-4H-1,2,4-triazol-3-yl)methyl]-8-(propan-2-yl)pyrazolo[1,5-a][1,3,5]triazin-4-amine]",14.1 µM,8.26 µM
"Clc1ccc(-c2nnc(CNc3nc(N4CCOCC4)nc4c(Br)cnn34)[nH]2)cc1 [Example 45, 8-bromo-N-{[5-(4-chlorophenyl)-4H-1,2,4-triazol-3-yl]methyl}-2-(morpholin-4-yl)pyrazolo[1,5-a][1,3,5]triazin-4-amine]",3.41 µM,5.37 µM
"COc1ccccc1-c1nnc(CNc2nc(N3CCN(C)CC3)nc3c(C4CC4(F)F)cnn23)[nH]1 (stereo not drawn) [Example 430, 8-(2,2-difluorocyclopropyl)-N-{[5-(2-methoxyphenyl)-4H-1,2,4-triazol-3-yl]methyl}-2-(4-methylpiperazin-1-yl)pyrazolo[1,5-a][1,3,5]triazin-4-amine]",> 20 µM,> 20 µM
"Cc1cnn2c(NCc3nc4ccccc4[nH]3)nc(N3CCOCC3)nc12 [Example 393, N-[(1H-benzimidazol-2-yl)methyl]-8-methyl-2-(morpholin-4-yl)pyrazolo[1,5-a][1,3,5]triazin-4-amine]",> 20 µM,9.94 µM
"Clc1cccc(-c2nnc(CNc3nc(N4CCOCC4)nc4c(Br)cnn34)[nH]2)c1 [Example 51, 8-bromo-N-{[5-(3-chlorophenyl)-4H-1,2,4-triazol-3-yl]methyl}-2-(morpholin-4-yl)pyrazolo[1,5-a][1,3,5]triazin-4-amine]",1.29 µM,1.64 µM
"Fc1ccc2[nH]c(CNc3nc(N4CCOCC4)nc4c(-c5ccnnc5)cnn34)nc2c1F [Example 417, N-[(4,5-difluoro-1H-benzimidazol-2-yl)methyl]-2-(morpholin-4-yl)-8-(pyridazin-4-yl)pyrazolo[1,5-a][1,3,5]triazin-4-amine]",> 1.63 µM,> 20 µM
